Results on nine compounds are retold here after patent publication US7514446B2, “Pyrimidine compounds” (SmithKline Beecham Corporation, priority 2003, dated 2009).

The target in one assay is T1, PLK1 kinase domain (Homo sapiens, UniProt P53350).
T1 construct: made in house; host or cells: baculovirus-infected T. ni insect cells
Kind of assay: Assay for inhibition of PLK1 (SPA, 33P-ATP, His-tagged PLK kinase domain). The class given is biochemical. To be noted: 2 μM ATP, read-out: Ave pIC50 PLK Enzyme Inhibition (converted). As to the method: I. Assay for Inhibition of PLK1
A. Preparation of 6× N-terminal His-tagged PLK Kinase Domain
6× N-terminal His-tagged PLK kinase domain (amino acids 21-346 preceded by […]) was prepared from baculovirus infected T. ni cells under polyhedrin promoter control. All procedures were performed at 4° C. Cells were lysed in 25 mM HEPES, 200 mM NaCl, 25 mM imidazole; pH 8.0. The homogenate was centrifuged at 14K rpm in a SLA-1500 rotor for 40 min and the supernatant filtered through a 1.2 micron filter. The supernatant was loaded onto a Nickel chelating Sepharose (Amersham Pharmacia) column and washed with 25 mM HEPES, 500 mM NaCl, 25 mM imidazole; pH 8.0. The column was then washed with a 16.6% B step where buffer B is 25 mM HEPES, 500 mM NaCl, 300 mM imidazole; pH 8.0. Protein was eluted using a 10-column volume linear gradient from 16.6% B to 100% B. Fractions containing PLK were determined by SDS-PAGE. PLK was concentrated using a 10 kDa molecular weight cutoff membrane and then loaded onto a Superdex 75 gel filtration (Amersham Pharmacia) column equilibrated in 25 mM HEPES, 1 mM DTT, 500 mM NaCl; pH 8.0. Fractions containing PLK were determined by SDS-PAGE. PLK was pooled, aliquoted and stored at −80° C. Samples were quality controlled using mass spectrometry.
B. Enzyme Activity+/−Inhibitors was Determined as Follows:
Compounds were added to the plate (1 μl in 100% DMSO). DMSO (2% final) and EDTA (55.5 mM final) were used as controls. Reaction Mix A is prepared as follows at 4° C.:
Reaction Mix A (substrate Mix): • 25 mM HEPES, pH 7.2 • 15 mM MgCl2 • 2 μM ATP • 0.1 μCi/well ^33P-γ ATP (10 Ci/mMol) • 2 μM substrate peptide (Biotin-Ahx-[…]) Reaction Mix B is prepared as follows at 4° C.:
Reaction Mix B (Enzyme Mix) • 25 mM HEPES, pH 7.2 • 15 mM MgCl2 • 0.15 mg/ml BSA • 2 mM DTT • 2-10 nM PLK1 kinase domain
Reaction Mix A (20 μl) is added per well. Reaction Mix B (20 μl) is added per well. Incubate 1.5 hrs. at RT. The enzymatic reaction is stopped with 175 μl of SPA/EDTA bead mix (29 mM EDTA, 2.5 mg/ml Streptavidin-coated SPA in Standard Dulbecco's PBS (without Mg^2+ and Ca^2+), 60 μM ATP). Plates are sealed spun (after a 1 hr incubation at RT) at 1,000×g for 7 min or settled overnight, then plates counted in Packard TopCount for 30 seconds/well.

For assay [1], the system named is H460 lung tumor cell line. Kind of assay: Methylene Blue Growth Inhibition Assay, H460. The class given is cell-based. Particulars: Homo sapiens, NCI-H460, 72 h; H460 cells, 3 days; read-out: MeB Cell Line IC50. As to the method: (§1) II. Methylene Blue Growth Inhibition Assay
(§2) Normal Human foreskin fibroblasts (HFF) and human colon (HCT116, RKO), lung (H460), prostate (PC3), and breast tumor (MCF7) cell lines were cultured in high glucose DMEM (Life Technologies) containing 10% fetal bovine serum (FBS) at 37° C. in a humidified 10% CO2, 90% air incubator. Cells were harvested using trypsin/EDTA, counted using a haemocytometer, and plated in 100 μl of the appropriate media, at the following densities, in a 96-well tissue culture plate (Falcon 3075): HFF 5,000 cells/well, HCT116 3,000 cells/well, RKO 2,500 cells/well, H460 2,000 cells/well, PC3 8,000 cells/well, MCF7 4,000 cells/well. The next day, compounds were diluted in DMEM containing 100 μg/ml gentamicin, at twice the final required concentration, from 10 mM stock solutions in DMSO. 100 μl/well of these dilutions were added to the 100 μl of media currently on the cell plates. Medium containing 0.6% DMSO was added to control wells. Compounds diluted in DMEM were added to all cell lines. The final concentration of DMSO in all wells was 0.3%. Cells were incubated at 37° C., 10% CO2 for 3 days. Medium was removed by aspiration. Cell biomass was estimated by staining cells with 90 μl per well methylene blue (Sigma M9140, 0.5% In 50:50 ethanol:water), and incubation at room temperature for at least 30 minutes. Stain was removed, and the plates rinsed under a gentle stream of water, and air-dried. To release stain from the cells 100 μl of solubilization solution was added (1% N-lauroyl sarcosine, Sodium salt, Sigma L5125, in PBS), and plates were shaken gently for about 30 minutes. Optical density at 620 nm was measured on a microplate reader. Percent inhibition of cell growth was calculated relative to vehicle treated control wells. Concentration of compound that inhibits 50% of cell growth (IC50) was interpolated using nonlinear regression (Levenberg-Marquardt) and the equation, y=Vmax*(1−(x/(K+x)))+Y2, where “K” was equal to the IC50. In Table 1, +=10->30 uM; ++=1-10 uM: +++=<1 uM.

The test system of assay [2] is HCT116 colon tumor cell line. Nature of the assay: Methylene Blue Growth Inhibition Assay, HCT116. The class given is cell-based. To be noted: Homo sapiens, HCT-116, 72 h; HCT116 cells, 3 days; read-out: MeB Cell Line IC50. As to the method:
as §1, §2

In assay [3] the test system is Normal Human foreskin fibroblasts (HFF). Kind of assay: Methylene Blue Growth Inhibition Assay, HFF. The class given is cell-based. To be noted: 72 h, HFF cells, 3 days, read-out: MeB Cell Line IC50. On the procedure:
as §1, §2

Assay [4] deals with MCF7 breast tumor cell line. Nature of the assay: Methylene Blue Growth Inhibition Assay, MCF7. The class given is cell-based. Particulars: Homo sapiens, 72 h; MCF7 cells, 3 days; read-out: MeB Cell Line IC50. On the procedure: as §1, §2
The subject of assay [5] is PC3 prostate tumor cell line. Kind of assay: Methylene Blue Growth Inhibition Assay, PC3. The class given is cell-based. To be noted: Homo sapiens, PC-3, 72 h; PC3 cells, 3 days; read-out: MeB Cell Line IC50. On the procedure: as §1, §2
In assay [6] the test system is RKO colon tumor cell line. Kind of assay: Methylene Blue Growth Inhibition Assay, RKO. The class given is cell-based. Particulars: Homo sapiens, 72 h; RKO cells, 3 days; read-out: MeB Cell Line IC50. As to the method: as §1, §2

Structures can show the parent of a compound that is named as a salt. Where only a bound is given, the exact number is not on record here.

T1 sequence (P53350 21-346): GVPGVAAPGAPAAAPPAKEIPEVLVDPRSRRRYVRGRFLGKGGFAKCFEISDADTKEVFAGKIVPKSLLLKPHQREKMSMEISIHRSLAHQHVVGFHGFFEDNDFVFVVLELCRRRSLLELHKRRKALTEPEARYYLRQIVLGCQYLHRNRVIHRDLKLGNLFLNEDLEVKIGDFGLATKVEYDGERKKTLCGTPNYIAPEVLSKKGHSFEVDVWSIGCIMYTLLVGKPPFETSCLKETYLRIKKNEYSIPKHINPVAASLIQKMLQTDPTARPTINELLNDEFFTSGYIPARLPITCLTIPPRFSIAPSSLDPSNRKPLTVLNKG

Take `COc1cc(Nc2ncc([N+](=O)[O-])c(Nc3ccccc3C(=O)NC3CCCCC3)n2)cc(OC)c1OC` [Example 34, N-Cyclohexyl-2-({5-nitro-2-[(3,4,5-trimethoxyphenyl)amino]pyrimidin-4-yl}amino)benzamide hydrochloride]: the IC50 on PLK1 kinase domain was under 0.1 µM; in assay [1] it was 1 to 10 µM; in assay [2], 1 to 10 µM; in assay [3], 1 to 10 µM; in assay [4] it was 1 to 10 µM; in assay [5] it was over 10 µM. For the same compound, in assay [6], the IC50 lay within 1 to 10 µM.
For `COc1cc(Nc2ncc([N+](=O)[O-])c(Nc3ccccc3C(=O)NC(C)(C)C)n2)cc(OC)c1OC` [Example 5, N-(tert-butyl)-2-({5-nitro-2-[(3,4,5-trimethoxyphenyl)amino]pyrimidin-4-yl}amino)benzamide hydrochloride], the IC50 at PLK1 kinase domain is under 0.1 µM; in assay [1] it was 1 to 10 µM; in assay [2], 1 to 10 µM; in assay [3], 1 to 10 µM; in assay [4], 1 to 10 µM; in assay [5] it was 1 to 10 µM. In addition, the IC50 in assay [6] lay in the range of 1 to 10 µM.
Turning to `COc1cc(Nc2ncc([N+](=O)[O-])c(Nc3cccc4c3OCCO4)n2)cc(OC)c1OC` [Example 19, N^4-(2,3-dihydro-1,4-benzodioxin-5-yl)-5-nitro-N^2-(3,4,5-trimethoxyphenyl)pyrimidine-2,4-diamine hydrochloride], the IC50 on PLK1 kinase domain was under 0.1 µM; in assay [1], 1 to 10 µM; in assay [2] it was over 10 µM; in assay [3], over 10 µM; in assay [4], 1 to 10 µM; in assay [5] it was over 10 µM. Also, the IC50 in assay [6] is 1 to 10 µM.
Regarding `CC(=O)Nc1ccc(Nc2ncc([N+](=O)[O-])c(Nc3ccccc3C(=O)c3ccccc3)n2)cc1` [Example 7, N-[4-({4-[(2-benzoylphenyl)amino]-5-nitropyrimidin-2-yl}amino)phenyl]acetamide hydrochloride], the IC50 on PLK1 kinase domain is under 0.1 µM; in assay [1], 1 to 10 µM; in assay [2], 1 to 10 µM; in assay [3], over 10 µM; in assay [4] it was 1 to 10 µM; in assay [5], 1 to 10 µM. In addition, the IC50 in assay [6] fell in the range of 1 to 10 µM.
As to `COc1cc(Nc2ncc([N+](=O)[O-])c(Nc3cccc4c3C(=O)CCC4)n2)cc(OC)c1OC` [Example 9, 8-({5-nitro-2-[(3,4,5-trimethoxyphenyl)amino]pyrimidin-4-yl}amino)-3,4-dihydronaphthalen-1(2H)-one hydrochloride], the IC50 is under 0.1 µM at PLK1 kinase domain; 1 to 10 µM in assay [1]; 1 to 10 µM in assay [2]; over 10 µM in assay [3]; 1 to 10 µM in assay [4]; 1 to 10 µM in assay [5]. For the same compound, in assay [6], the IC50 lay within 1 to 10 µM.
With `COc1cc(Nc2ncc(C#N)c(Nc3ccccc3C(=O)c3ccc(C)cc3)n2)cc(OC)c1OC` [Example 39, 4-{[2-(4-Methylbenzoyl)phenyl]amino}-2-[(3,4,5-trimethoxyphenyl)amino]pyrimidine-5-carbonitrile], the IC50 is under 0.1 µM on PLK1 kinase domain; 1 to 10 µM in assay [1]; 1 to 10 µM in assay [2]; over 10 µM in assay [3]; 1 to 10 µM in assay [4]; 1 to 10 µM in assay [5]. The IC50 in assay [6] was 1 to 10 µM.
As for `COc1cc(Nc2ncc([N+](=O)[O-])c(Nc3cccc4[nH]ccc34)n2)cc(OC)c1OC` [Example 15, N^4-(1H-indol-4-yl)-5-nitro-N^2-(3,4,5-trimethoxyphenyl)pyrimidine-2,4-diamine hydrochloride], the IC50 on PLK1 kinase domain was under 0.1 µM; in assay [1] it was 1 to 10 µM; in assay [2], 1 to 10 µM; in assay [3] it was 1 to 10 µM; in assay [4], 1 to 10 µM; in assay [5], 1 to 10 µM. The IC50 in assay [6] is under 1 µM.
Consider `COc1cc(Nc2ncc([N+](=O)[O-])c(Nc3ccc(O)cc3C(=O)O)n2)cc(OC)c1OC` [Example 22, 5-Hydroxy-2-({5-nitro-2-[(3,4,5-trimethoxyphenyl)amino]pyrimidin-4-yl}amino)benzoic acid hydrochloride], for which the IC50 on PLK1 kinase domain was under 0.1 µM; in assay [1], over 10 µM; in assay [2] it was over 10 µM; in assay [3], over 10 µM; in assay [4] it was over 10 µM; in assay [5], over 10 µM. Besides, the IC50 in assay [6] was over 10 µM.
Take `COc1cc(Nc2ncc([N+](=O)[O-])c(Nc3ccc(Cl)cc3C(=O)c3ccccc3F)n2)cc(OC)c1OC` [Example 36, [5-Chloro-2-({5-nitro-2-[(3,4,5-trimethoxyphenyl)amino]pyrimidin-4-yl}amino)phenyl](2-fluorophenyl)methanone hydrochloride]: the IC50 at PLK1 kinase domain was under 0.1 µM; in assay [1], 1 to 10 µM; in assay [2], 1 to 10 µM; in assay [3], over 10 µM; in assay [4] it was 1 to 10 µM; in assay [5], over 10 µM. For the same compound, the IC50 in assay [6] lay in the range of 1 to 10 µM.
